# From PubChem BioAssay AID1195 (EPA DSSTox, 2008)
# Starred links: 1 amine or outer side, 2 acyl side, 3 side chain; linkers in the order of their positions; H or OH if unused. Positions of bridges follow the written chain, without caps; N, C: chain ends. Non-standard residues stand in square brackets, D forms with d. Residues, ends and D or L forms follow the SMILES beside them. Chains are numbered I, II in the order given. Actinocin(9to1) = Cc1c2oc3c(C)ccc(C(=O)[*:1])c3nc-2c(C(=O)[*:2])c(N)c1=O; NMeV = CN[C@H](C(=O)O)C(C)C; Sar = CNCC(=O)O
# Tested on: human maximum recommended daily dose, FDA database
# Assay: DSSTox (FDAMDD) FDA Maximum (Recommended) Daily Dose Database
# Conditions: active compounds read low
# Summary of the method: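 MRDD values come from clinical trials with daily oral dosing, usually for 3–12 months, for the average adult, in mg/day converted to mg/kg-bw/day assuming 60 kg. Antineoplastic mg/m2 doses are divided by 37. Activity score maps log10(1/MRDD mmol) onto 1–100.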
# [1] = TherapeuticCategory: diagnostic aid
# [2] = TherapeuticCategory: antibacterial
# [3] = TherapeuticCategory: glucocorticoid
# [4] = TherapeuticCategory: anti inflammatory
# [5] = TherapeuticCategory: antineoplastic
# [6] = TherapeuticCategory: antidepressant
structure (smiles),measurement,setting,value
C[C@H](O)C(=O)Nc1c(I)c(C(=O)NC(CO)CO)c(I)c(C(=O)NC(CO)CO)c1I,maximum recommended daily dose (mmol/kg-bw/day),[1],0.129
O=C1CC2(CCCC2)CC(=O)N1CCCCN1CCN(c2ncccn2)CC1,maximum recommended daily dose (mmol/kg-bw/day),TherapeuticCategory: anxiolytic,0.00259
Nc1nc(N)c2nc(CNc3ccc(C(=O)NC(CCC(=O)O)C(=O)O)cc3)cnc2n1 (stereo not drawn),maximum recommended daily dose (mmol/kg-bw/day),TherapeuticCategory: rodenticide,1.89e-05
COC(=O)C1=C(C)NC(C)=C(C(=O)OCC(C)C)C1c1ccccc1[N+](=O)[O-] (stereo not drawn),maximum recommended daily dose (mmol/kg-bw/day),"TherapeuticCategory: antihypertensive, antianginal",0.00172
COc1cc(NS(=O)(=O)c2ccc(N)cc2)c(OC)nn1,maximum recommended daily dose (mmol/kg-bw/day),[2],0.161
CC(C)NCC(O)COc1ccc(O)cc1 (stereo not drawn),maximum recommended daily dose (mmol/kg-bw/day),TherapeuticCategory: cardiotonic,0.00148
CN(Cc1cnc2nc(N)nc(N)c2n1)c1ccc(C(=O)N[C@@H](CCC(=O)O)C(=O)O)cc1,maximum recommended daily dose (mmol/kg-bw/day),"TherapeuticCategory: antineoplastic, antirheumatic",0.0011
CC(O)Cn1cnc2c1c(=O)n(C)c(=O)n2C (stereo not drawn),maximum recommended daily dose (mmol/kg-bw/day),"TherapeuticCategory: bronchodilator, vasodilator, smooth muscle relaxant",0.168
CN(C)CCOc1ccc(/C(=C(/CCCl)c2ccccc2)c2ccccc2)cc1,maximum recommended daily dose (mmol/kg-bw/day),"TherapeuticCategory: antiestrogen, antineoplastic",0.0082
C[C@H]1C[C@@H]2[C@H]([C@@H](O)C[C@@]3(C)[C@H]2CC[C@]3(O)C(=O)COC(=O)CCCCCCC(=O)N(C)CCS(=O)(=O)O)[C@@]2(C)C=CC(=O)C=C12,maximum recommended daily dose (mmol/kg-bw/day),[3],0.0061
Cc1cccc(C)c1NC(=O)C1CCCCN1C (stereo not drawn),maximum recommended daily dose (mmol/kg-bw/day),TherapeuticCategory: local anesthetic,0.0271
CC(C)[C@H](N)C(=O)OCCOCn1cnc2c(=O)[nH]c(N)nc21,maximum recommended daily dose (mmol/kg-bw/day),TherapeuticCategory: antiviral,0.154
Cc1ccc(S(=O)(=O)NC(=O)NN2CC3CCCC3C2)cc1 (stereo not drawn),maximum recommended daily dose (mmol/kg-bw/day),TherapeuticCategory: antidiabetic,0.0165
N=C(N)c1ccc(/C=C/c2ccc(C(=N)N)cc2O)cc1,maximum recommended daily dose (mmol/kg-bw/day),TherapeuticCategory: antiprotozoal,0.0149
CN1c2ccccc2Sc2ccc(CC(=O)O)cc21,maximum recommended daily dose (mmol/kg-bw/day),[4],0.0461
CCn1cc(C(=O)O)c(=O)c2cc(F)c(N3CCNCC3)nc21,maximum recommended daily dose (mmol/kg-bw/day),[2],0.0624
C[C@H](N)Cc1ccccc1,maximum recommended daily dose (mmol/kg-bw/day),"TherapeuticCategory: CNS stimulant, anorexic",0.0074
CCC(=O)O[C@H]1CC[C@H]2[C@@H]3CC[C@H]4CC(=O)[C@H](C)C[C@]4(C)[C@H]3CC[C@]12C,maximum recommended daily dose (mmol/kg-bw/day),[5],0.00463
Cc1ccc(C(=O)c2cc(O)c(O)c([N+](=O)[O-])c2)cc1,maximum recommended daily dose (mmol/kg-bw/day),"TherapeuticCategory: antidepressant, catechol-O-methyltransferase inhibitor",0.0122
CC(C)=CCC1C(=O)N(c2ccccc2)N(c2ccccc2)C1=O,maximum recommended daily dose (mmol/kg-bw/day),[4],0.039
CC(c1cc2ccccc2s1)N(O)C(N)=O (stereo not drawn),maximum recommended daily dose (mmol/kg-bw/day),"TherapeuticCategory: antiasthmatic, anti inflammatry",0.169
CCc1nc(N)nc(N)c1-c1ccc(Cl)cc1,maximum recommended daily dose (mmol/kg-bw/day),TherapeuticCategory: antimalarial,0.00503
CCCCCCCCCCCCCCCCCC(=O)OCC(=O)OCC(=O)[C@@]1(O)CC[C@H]2[C@@H]3CCC4=CC(=O)C=C[C@]4(C)[C@H]3[C@@H](O)C[C@@]21C,maximum recommended daily dose (mmol/kg-bw/day),[3],0.00486
CN(C)[C@@H]1C(=O)C(C(N)=O)=C(O)[C@@]2(O)C(=O)C3=C(O)c4c(O)ccc(Cl)c4[C@@](C)(O)[C@H]3C[C@@H]12,maximum recommended daily dose (mmol/kg-bw/day),"TherapeuticCategory: antibacterial, antiamebic",0.0695
CCOC(=O)CCCCCCCCC(C)c1cccc(I)c1 (stereo not drawn),maximum recommended daily dose (mmol/kg-bw/day),[1],0.3
CNCCCN1c2ccccc2CCc2ccccc21,maximum recommended daily dose (mmol/kg-bw/day),[6],0.0188
"Cc1c2oc3c(C)ccc(C(=O)N[C@@H]4C(=O)N[C@H](C(C)C)C(=O)N5CCC[C@H]5C(=O)N(C)CC(=O)N(C)[C@@H](C(C)C)C(=O)O[C@@H]4C)c3nc-2c(C(=O)N[C@@H]2C(=O)N[C@H](C(C)C)C(=O)N3CCC[C@H]3C(=O)N(C)CC(=O)N(C)[C@@H](C(C)C)C(=O)O[C@@H]2C)c(N)c1=O (I: T[dV]P[Sar][NMeV] / II: T[dV]P[Sar][NMeV]; ester I:1-I:C, II:1-II:C; linker I:N-II:N via Actinocin(9to1))",maximum recommended daily dose (mmol/kg-bw/day),[5],1.19e-05
CC(C)NCC(O)COc1cccc2ccccc12 (stereo not drawn),maximum recommended daily dose (mmol/kg-bw/day),"TherapeuticCategory: antihypertensive, antianginal, antiarrhythmic",0.0413
O=C1CSC2(CCN(CCCN3c4ccccc4Sc4ccc(Cl)cc43)CC2)N1,maximum recommended daily dose (mmol/kg-bw/day),TherapeuticCategory: antipsychotic,0.0155
CC(C)C[C@H]1C(=O)N2CCC[C@H]2[C@]2(O)O[C@](NC(=O)[C@@H]3C=C4c5cccc6[nH]c(Br)c(c56)C[C@H]4N(C)C3)(C(C)C)C(=O)N12,maximum recommended daily dose (mmol/kg-bw/day),"TherapeuticCategory: enzyme inhibitor, antiparkinsonian",0.00255
CC(CC1c2ccccc2CCc2ccccc21)CN(C)C (stereo not drawn),maximum recommended daily dose (mmol/kg-bw/day),[6],0.00852
CN[C@@H]1[C@H](O[C@H]2[C@H](O[C@H]3[C@H](O)[C@@H](O)[C@H](N=C(N)N)[C@@H](O)[C@@H]3N=C(N)N)O[C@@H](C)[C@]2(O)C=O)O[C@@H](CO)[C@H](O[C@@H]2O[C@H](CO)[C@@H](O)[C@H](O)[C@@H]2O)[C@H]1O,maximum recommended daily dose (mmol/kg-bw/day),[2],0.0269
CN1CCN(CCCN2c3ccccc3Sc3ccc(S(=O)(=O)N(C)C)cc32)CC1,maximum recommended daily dose (mmol/kg-bw/day),"TherapeuticCategory: neuroleptic, antiemetic",0.00149
